From patent US11564923B2, “Compounds and pharmaceutical compositions thereof for the treatment of inflammatory disorders” (Galapagos NV, priority 2017, dated 2023) come the findings set out here.

Experiment [1] deals with IL-12 activation of STAT4 in NK-92 cells. In words: IL-12 activation of STAT4 in NK-92 cells using AphaLISA SureFire technology. As to conditions: Homo sapiens, NK92; IL-12 activation of STAT4 in NK-92 cells, AlphaLISA SureFire; average IC50; read-out: IL12 pSTAT4 IC50. It counts as cell-based. In short, it runs like this: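 NK-92 cells, starved of rhIL-2 overnight, were stimulated with rhIL-12 for 30 min at 37 °C with test compounds, then lysed. Phospho-STAT4 (Tyr693) was read by AlphaLISA SureFire. Percent inhibition versus the vehicle-plus-trigger signal was fitted by sigmoidal nonlinear regression to give IC50, averaged over experiments.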

Experiment [2] deals with Recombinant human JAK3 catalytic domain (amino acids 781-1124) (Homo sapiens, UniProt P52333). In words: JAK3 inhibition assay. The format is biochemical. In short, it runs like this: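 Radiometric kinase reaction run 45 min at 30° C., stopped with phosphoric acid; activity as vehicle cpm minus 10 μM staurosporine cpm.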
Experiment [3] deals with T1, Recombinant human JAK2 (catalytic domain, amino acids 808-1132) (Homo sapiens, UniProt O60674).
T1 construct: catalytic domain, amino acids 808-1132
In words: JAK2 inhibition assay. Also: 0.7 µM ATP. The conditions noted are these: read-out: JAK2 potency IC50. The format is biochemical.

In experiment [4] the target is T2, Recombinant human JAK1 (catalytic domain, amino acids 866-1154) (Homo sapiens, UniProt P23458).
T2 construct: catalytic domain, amino acids 866-1154
The experiment can be described thus: JAK1 inhibition assay. The format is biochemical. As to conditions: read-out: JAK1 potency IC50.

The subject of experiment [5] is IL-12 activation of STAT4 in NK-92 cells. In words: IL-12 activation of STAT4 in NK-92 cells using MSD as readout. The conditions noted are these: Homo sapiens, NK92; NK-92 cells, rhIL-12 25 ng/mL, MSD readout; read-out: IL12 pSTAT4 IC50. It counts as cell-based. On the procedure: IL-2 is added freshly to the medium with each medium refreshment step. Cells are cultured in a humidified incubator at 37° C. 5% CO2.
NK-92 cells are pre-incubated with test compounds or vehicle for 30 min at 37° C. 5% CO2. […] NK-92 cells are triggered with rhIL-12 for 45 min at 37° C. 5% CO2.
After 45 min of cytokine stimulation the cells are lysed by addition of 50 μL ice-cold lysis buffer (supplemented with the MSD kit). Plates are frozen at −80° C. for minimal 1 hour to lyse the cells completely. After thawing the levels of phospho-STAT4 are quantified using the Phospho-STAT4 (Tyr693) kit (MSD, Catalogue number K150PAD-2) according to the manufacturer's instructions. Electroluminescent signal is measured on the MSD reader.
The percentage inhibition is calculated as: […]
RLU (trigger/veh): Relative lumescent signal determined in presence of vehicle and trigger
RLU (test compound): Relative luminescent signal determined in presence of test compounds)
PIN values are plotted for compounds tested in dose-response and IC50 values are derived using LIMS Software applying non-linear regression (sigmoidal) curve fitting. The data are expressed as the average IC50 from different experiments.

The target in experiment [6] is T3, Recombinant human TYK2 catalytic domain (amino acids 871-1187) (Homo sapiens, UniProt P29597).
T3 construct: catalytic domain (amino acids 871-1187)
T3 sequence (P29597 871-1187): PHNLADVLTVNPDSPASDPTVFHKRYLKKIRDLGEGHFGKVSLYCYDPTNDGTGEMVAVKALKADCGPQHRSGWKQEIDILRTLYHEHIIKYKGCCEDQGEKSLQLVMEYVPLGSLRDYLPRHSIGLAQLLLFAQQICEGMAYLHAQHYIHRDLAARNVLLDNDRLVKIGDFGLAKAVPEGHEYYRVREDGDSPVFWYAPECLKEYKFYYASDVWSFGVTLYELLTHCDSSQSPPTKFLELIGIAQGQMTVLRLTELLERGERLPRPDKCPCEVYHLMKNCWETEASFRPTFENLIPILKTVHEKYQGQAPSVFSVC
In words: TYK2 radioactive assay polyGT substrate. Also: 0.1 µM ATP. The format is biochemical. In short, it runs like this:
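Reaction at 30° C. for 120 min, ended with 150 mM phosphoric acid, washed, counted; percent inhibition scaled between vehicle and 10 μM staurosporine cpm.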

Experiment [7] relates to IFNα activation of STAT1 in PBMC. The experiment can be described thus: IFNα activation of STAT1 in PBMC. The format is cell-based. As to conditions: Homo sapiens; IFNα activation of STAT1 in PBMC; average IC50; read-out: IFNα signaling inhibitory potency IC50. In short, it runs like this: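 Human PBMC, with red cells lysed by NH4Cl, were pre-treated with compound for 30 min at 37 °C and 5% CO2. They were then stimulated for 30 min with recombinant human IFNα at 5 ng/mL final.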

T1 sequence (O60674 808-1132): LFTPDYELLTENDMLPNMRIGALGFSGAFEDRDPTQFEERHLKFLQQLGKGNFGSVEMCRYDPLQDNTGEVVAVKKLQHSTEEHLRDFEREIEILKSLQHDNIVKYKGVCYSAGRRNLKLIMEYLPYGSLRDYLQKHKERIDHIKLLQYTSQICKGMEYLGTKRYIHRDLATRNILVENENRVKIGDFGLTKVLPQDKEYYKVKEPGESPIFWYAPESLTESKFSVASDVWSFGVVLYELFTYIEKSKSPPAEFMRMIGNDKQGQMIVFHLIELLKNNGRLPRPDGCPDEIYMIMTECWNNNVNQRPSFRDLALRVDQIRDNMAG
T2 sequence (P23458 866-1154): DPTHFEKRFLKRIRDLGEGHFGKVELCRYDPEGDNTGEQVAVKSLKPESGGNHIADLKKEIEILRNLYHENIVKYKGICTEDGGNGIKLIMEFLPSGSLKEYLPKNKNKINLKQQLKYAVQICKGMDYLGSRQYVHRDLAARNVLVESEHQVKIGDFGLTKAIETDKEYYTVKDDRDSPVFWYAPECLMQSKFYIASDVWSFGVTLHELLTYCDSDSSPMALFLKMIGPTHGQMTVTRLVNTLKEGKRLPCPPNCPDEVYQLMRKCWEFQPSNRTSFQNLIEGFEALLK
Recombinant human JAK3 catalytic domain (amino acids 781-1124), sequence (P52333 781-1124): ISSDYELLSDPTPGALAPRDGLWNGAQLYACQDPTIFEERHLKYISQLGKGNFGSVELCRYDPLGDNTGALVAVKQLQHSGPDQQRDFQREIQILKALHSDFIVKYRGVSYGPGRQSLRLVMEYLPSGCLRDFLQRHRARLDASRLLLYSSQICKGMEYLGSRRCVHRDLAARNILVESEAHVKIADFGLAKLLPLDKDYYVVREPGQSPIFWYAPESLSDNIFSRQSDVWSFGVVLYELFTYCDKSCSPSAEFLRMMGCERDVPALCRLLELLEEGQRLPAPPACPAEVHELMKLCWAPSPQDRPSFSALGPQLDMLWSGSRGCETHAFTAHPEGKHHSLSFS

Turning to `CC1COCCC1N(C)c1cc(Nc2cc(N)ncn2)c2ncn(C)c2n1` (stereo not drawn) [Compound 19, N7-(6-Amino-pyrimidin-4-yl)-3,N5-dimethyl-N5-(3-methyl-tetrahydro-pyran-4-yl)-3H-imidazo[4,5-b]pyridine-5,7-diamine], the IC50 in experiment [1] was determined as 0.072 µM; in experiment [2] it was 0.231 µM; in experiment [3], 0.0112 µM; in experiment [4] it was 0.0809 µM; in experiment [5], 0.806 µM; in experiment [6] it was 0.0107 µM.

As to `CCNC(=O)c1ccc(Nc2cc(Oc3cnc(C#N)cc3C)nc3c2ncn3C)nn1` [Compound 23, 6-[5-(6-Cyano-4-methyl-pyridin-3-yloxy)-3-methyl-3H-imidazo[4,5-b]pyridin-7-ylamino]-pyridazine-3-carboxylic acid ethylamide], the half-inhibitory concentration (IC50) in experiment [2] was 2.93 µM; in experiment [3] it was 0.0667 µM; in experiment [4], 0.234 µM; in experiment [7] it was 0.16 µM; in experiment [5] it was 0.248 µM; in experiment [6], 0.0183 µM.

As for `Cc1cc(C#N)ncc1Oc1cc(Nc2ccc(C(=O)NCC(C)O)nn2)c2ncn(C)c2n1` (stereo not drawn) [Compound 25, 6-[5-(6-Cyano-4-methyl-pyridin-3-yloxy)-3-methyl-3H-imidazo[4,5-b]pyridin-7-ylamino]-pyridazine-3-carboxylic acid (2-hydroxy-propyl)-amide], the IC50 stood at 2.3 µM in experiment [2]; 0.0783 µM in experiment [3]; 0.243 µM in experiment [4]; 0.198 µM in experiment [7]; 1.12 µM in experiment [5]; 0.0192 µM in experiment [6].

For the compound `CCNS(=O)(=O)c1ccc(Nc2cc(Oc3cnc(C#N)cc3C)nc3c2ncn3C)cc1` [Compound 53, 4-[[5-[(6-cyano-4-methyl-3-pyridyl)oxy]-3-methyl-imidazo[4,5-b]pyridin-7-yl]amino]-N-ethyl-benzenesulfonamide], the IC50 in experiment [2] worked out at 0.495 µM; in experiment [3] it was 0.0727 µM; in experiment [4] it was 0.068 µM; in experiment [7] it was 0.119 µM; in experiment [5] it was 0.409 µM; in experiment [6], 0.00922 µM.

Turning to `Cc1cc(C#N)ncc1Oc1cc(Nc2ccc(S(C)(=O)=O)cn2)c2ncn(C)c2n1` [Compound 58, 4-methyl-5-[3-methyl-7-[(5-methylsulfonyl-2-pyridyl)amino]imidazo[4,5-b]pyridin-5-yl]oxy-pyridine-2-carbonitrile], the half-inhibitory concentration (IC50) in experiment [2] is 1.1 µM; in experiment [3] it was 0.0355 µM; in experiment [4] it was 0.0978 µM; in experiment [7], 0.088 µM; in experiment [5], 0.595 µM; in experiment [6] it was 0.00742 µM.

Turning to `Cc1cc(C#N)ncc1Oc1cc(Nc2ccc(C(F)(F)F)cn2)c2ncn(C)c2n1` [Compound 59, 4-methyl-5-[3-methyl-7-[[5-(trifluoromethyl)-2-pyridyl]amino]imidazo[4,5-b]pyridin-5-yl]oxy-pyridine-2-carbonitrile], the 50% inhibitory concentration (IC50) in experiment [2] turned out to be 3.78 µM; in experiment [3], 0.133 µM; in experiment [4] it was 0.461 µM; in experiment [7], 0.407 µM; in experiment [5], 4.72 µM; in experiment [6] it was 0.0692 µM.

Regarding `Cc1cc(C#N)ncc1Oc1cc(Nc2ccc(S(=O)(=O)N3CCOCC3)cc2)c2ncn(C)c2n1` [Compound 63], the IC50 in experiment [2] amounted to 0.584 µM; in experiment [3], 0.07 µM; in experiment [4] it was 0.102 µM; in experiment [7], 0.128 µM; in experiment [5] it was 1.14 µM; in experiment [6], 0.00758 µM.
